Measured values as given in US6432883B1, “Methods of treating plants with glycolic acid” (Emerald BioAgriculture Corporation, priority 2000, dated 2002).
Marks after values point to notes of the source that are not given here.

Experiments:
Sclerotinia minor [1] = assay: Lettuce pathogen stress: spray treatment, then stem inoculation, disease severity rating; assay type: in vivo; details: for Disease Severity Rating: lettuce, 1-9 rating scale
Method: Waldmann's MTO dark green Grand Rapids leaf lettuce seed, lot#15529, was purchased from Johnny's Selected Seeds, Albion, Me., and grown 8 plants per 1 gallon pot, 1 pot per experimental unit and 3 experimental units per each of 4 replications. The plants were spray-treated first following “row closure” and again 14 days later with 8 ml per pot. The pathogen stress (Sclerotinia minor hyphal fragments and sclerotia, cultured on potato dextrose agar) was applied to the plant stems at the soil/stem interface at 14 days following the second treatment application.
Treatments consisted of non-inoculated and inoculated groups of non-treated (NTC), water and 0.05% surfactant-blank (SB) controls and 15 and 60 ppm of glycolic acid.
Disease assessment was made just prior to harvest by means of a 1-9 based rating scale. Extensive decomposition of the controls made accurate yield fresh and dry weights impossible. The results in Table 1 below show the data for each treatment and the rating scale definitions.

Sclerotinia minor [2] = assay: Cabbage pathogen stress: disease severity rating, fresh and dry weights; assay type: in vivo; details: for Dry Weight / Fresh Weight: cabbage under pathogen stress; for Disease Severity Rating: cabbage, 1-9 rating scale
Method: Market Prize, F1 cabbage seed, lot 88955, was purchased from Harris Seeds, Inc., Rochester, N.Y. These were grown 8 plants per 1 gallon pot, 1 pot per experimental unit and 3 experimental units per each of 3 replications. The plants were spray-treated first at 4 true leaves and again 14 days later with 8 ml per pot. The pathogen stress (Sclerotinia minor hyphal fragments and sclerotia, cultured on potato dextrose agar) was applied to the plant stems at the soil/stem interface at 4 days following the second treatment application.
Treatments consisted of non-inoculated and inoculated groups of non-treated (NTC), water and 0.05% surfactant-blank (SB) controls and 1, 5, 10, 25, 37.5 and 75 ppm of glycolic acid.
Disease assessment was made just prior to harvest by means of a 1-9 based rating scale. Each plant was harvested at the soil line for yield fresh and dry weights. The results in Table 2 below show the data for each treatment and the rating scale definitions.

Sclerotinia minor [3] = assay: Excised lettuce leaves, post-harvest pathogen stress: disease index; assay type: in vivo; details: for Disease Index [(severity)(% incidence)/100]: 3 days post-inoculation
Text: Waldmann's MTO dark green Grand Rapids leaf lettuce seed, lot# 15529, was purchased from Johnny's Selected Seeds, Albion, Me., and broadcast seeded into 10×20×2′ flats. Circular steel-blue blotter papers (Anchor Paper Co, St. Paul, Minn.) were fitted into disposable petri dishes. Treatments consisted of non-inoculated and inoculated groups of non-treated (NTC), water and 0.01% surfactant-blank (SB) controls and 10, 25, 75,150, 500 and 1000 ppm of glycolic acid.
Blotters were saturated with 4.5 ml sterile tap water. Individual leaves (20) were excised and placed into a treatment solution for 5 seconds or left non-treated. Excess fluid was removed from the leaf surface. These leaves were then placed singly, 1 leaf per dish and adaxial side up, on the moist blotters. Dish lids were replaced and dishes stacked, bagged and returned to the petri dish box for 24 hours dark storage at room temperature (68-72° F.).
Inoculum (Sclerotinia minor hyphal fragments and sclerotia) was grown on potato dextrose agar (PDA) plates until the sclerotia were black and hard. These were blended into a paste with non-inoculated PDA and sterile tap water. A small spot of inoculum paste containing hyphal fragments and 2-3 sclerotia was dotted onto the center of 16 of the 20 leaf pieces per treatment stack 24 hours after test substance application.
Due to the nature of Sclerotinia as a pathogen, disease is generally an all-or-nothing phenomenon. Therefore, it is necessary to assess both disease incidence and disease severity to give an accurate representation of the disease progression. Disease severity assessment was made at 3 days±2 hours post-inoculation by measuring the radius of colonized tissue in mm. Disease incidence was assessed as the presence or absence of infection (number of diseased leaves/ number of leaves tested) 100=% incidence. Multiplying the average severity by the % incidence and dividing by 100 then combined both evaluations into one assessment number and created a disease index value. The results in Table 5 below show this value for each treatment.

Sclerotinia minor [4] = assay: Colony radius of plant pathogen on amended potato dextrose agar; assay type: cell-based; details: in PDA, 4 days, about 23° C., FIG. 5
Text: Sclerotinia minor culture SaM-18 was received from Krishna Subbarro, Ph.D., Univ. Calif., Davis. Potato dextrose agar (PDA) powder was purchased from Baltimore Biological Laboratory, Inc. (BBL), ammonium glycolate and glycolic acid from DuPont Specialty Chemicals and BreakThru® surfactant from Goldschmidt Chemical Corp.
PDA was made, poured into sterile disposable petri dishes (100×15 mm) and inoculated with S. minor sclerotia to start new cultures on day zero. These cultures had reached an appropriate stage of maturation for use for use in the test after two weeks of growth. Multiple 1 liter containers of PDA were made and autoclaved on day 14. These PDA containers remained in the circulating water bath at 46° C. until the solutions were ready for addition (about 2 hrs.). The glycolic acid-containing compositions were added to the 46° C. PDA through a syringe-tip 0.2 μm-pore sterile filtration disc in a positive laminar-flow sterile hood and thoroughly mixed before returning to the 46° C. water bath to await pouring. Stacks of 22 dishes were poured for each medium type and allowed to solidify and cool overnight.
On day 15, soft, white to gray, sclerotial clumps of hyphae were picked from the culture dishes with heat sterilized forceps and one clump was transferred to the center of each test medium dish. Twenty dishes of each inoculated medium were stacked and replaced into the plastic sleeves they were originally packaged in for incubation at room temperature (about 23° C.). After 4 days of growth, some of the cultures had just reached the edges of the medium. The radius of each colony was measure in mm.
Treatments were water controls, 0.05% surfactant controls, 5, 15, 50, 75 and 100 ppm of glycolic acid (F12) and 5, 15, 50, 100 and 750 ppm of ammonia-neutralized glycolic acid (F18; i.e., ammonium glycolate).

## O=C(O)CO [glycolic acid]
Sclerotinia minor [1]; 15 ppm spray
  Disease Severity Rating: 3.0*
Sclerotinia minor [1]; 60 ppm spray
  Disease Severity Rating: 3.5*
Sclerotinia minor [1]; all glycolic acid treatments (15 and 60 ppm), α=0.05
  disease severity versus control lettuce: statistically significant (α=0.05) decrease
Sclerotinia minor [2]; 1 ppm spray
  Dry Weight: 38.3 g
  Fresh Weight: 359 g
  Disease Severity Rating: 3.6
Sclerotinia minor [2]; 5 ppm spray
  Dry Weight: 39.8 g
  Fresh Weight: 346 g
  Disease Severity Rating: 3.7
Sclerotinia minor [2]; 10 ppm spray
  Dry Weight: 40.9 g
  Fresh Weight: 342 g
  Disease Severity Rating: 2.8
Sclerotinia minor [2]; 25 ppm spray
  Dry Weight: 39.1 g
  Fresh Weight: 364 g
  Disease Severity Rating: 2.2
Sclerotinia minor [2]; 37.5 and 75 ppm, α=0.05
  disease severity versus control: statistically significant (α=0.05) decrease
Sclerotinia minor [2]; 37.5 ppm
  fresh weight versus control: statistically significant increase
Sclerotinia minor [2]; 37.5 ppm spray
  Dry Weight: 39.0 g
  Fresh Weight: 381* g
  Disease Severity Rating: 1.7*
Sclerotinia minor [2]; 75 ppm
  dry weight versus control: statistically significant increase
Sclerotinia minor [2]; 75 ppm spray
  Dry Weight: 41.5* g
  Fresh Weight: 354 g
  Disease Severity Rating: 2.0*
Sclerotinia minor [3]; 10 ppm leaf dip
  Disease Index [(severity)(% incidence)/100]: 1.2
Sclerotinia minor [3]; 25 ppm and 75 ppm, lettuce leaves, α=0.05
  disease severity versus control lettuce: statistically significant (α=0.05) decrease
Sclerotinia minor [3]; 25 ppm leaf dip
  Disease Index [(severity)(% incidence)/100]: 0.1*
Sclerotinia minor [3]; 75 ppm leaf dip
  Disease Index [(severity)(% incidence)/100]: 0.5*
Sclerotinia minor [3]; 150 ppm leaf dip
  Disease Index [(severity)(% incidence)/100]: 1.3
Sclerotinia minor [3]; 500 ppm leaf dip
  Disease Index [(severity)(% incidence)/100]: 1.1
Sclerotinia minor [3]; 1000 ppm leaf dip
  Disease Index [(severity)(% incidence)/100]: 2.0
Sclerotinia minor [4]
  growth of Sclerotinia minor (colony radius) compared to controls: statistically significantly increased the growth
